In EP3952873B1 (priority 2019, dated 2020):

How the values were obtained:
GABAA receptors = assay: Affinity for GABAA receptors; format: binding
recombinant CaMK2a = molecular target: T1, recombinant CaMK2a (Rattus norvegicus, UniProt P11275); assay: [3H]HOCPCA binding to recombinant CaMK2a expressed in HEK293T cells
T1 construct: host or cells: HEK293T
Method: Protein concentration was determined using the Bradford protein assay. […] The dried filters were added scintillation liquid and radioactivity measured on a Tricarb 2100 Scintillation counter (Packard).

[1] = molecular target: T2, GHB high-affinity binding site/CaMK2a (Rattus norvegicus, UniProt P11275); assay: Rat brain membrane [3H]NCS-382 binding assay; conditions: 16 nM [3H]NCS-382, rat cortical synaptic membranes, pH 6.0, 0-4 °C
T2 construct: rat (Sprague-Dawley) cortical synaptic membranes (P2 synaptosomes) were prepared; from tissue; host or cells: rat (Sprague-Dawley) cortical synaptic membranes (P2 synaptosomes)
Method: According to previously published protocols, rat (Sprague-Dawley) cortical synaptic membranes (P2 synaptosomes) were prepared and stored at -20 °C until the day of assay (Wellendorph et al., 2005). Membranes were then washed three times with binding buffer (50 mM potassium phosphate buffer pH 6.0). The binding protocol was performed in 96-well microplates. In brief, compounds were incubated with 16 nM [^3H]NCS-382 radioligand and membranes for 60 min at 0-4 °C, filtered through GF/C filter plates (PerkinElmer) using a 96-well harvester (Packard), rapidly washed three times with ice-cold binding buffer, and filter plates dried. CPM values were determined using liquid scintillation counting in a TopCount NXT Microplate Scintillation & Luminescence Counter (PerkinElmer). Curves were generated using non-linear regression (GraphPad Prism 7, GraphPad Prism Software, San Diego, CA, USA).
JON-11, related analogues, and pro-JON-11(10) were tested in the [^3H]NCS-382 binding assay (Wellendorph et al., 2005).

mice = format: in vivo; conditions: 100 mg/kg i.p.
Method: To determine locomotor effects (e.g. sedation or hyperactivity) compounds were assessed after systemic administration to mice. Mice (typically n=5-8) were administered selected compounds, e.g. JON-11 and pro-JON-11 and vehicle controls, and placed in transparent cages (L: 37 cm x W: 21 cm x H: 15 cm). Locomotor activity were measured via a camera mounted above the arena. Mice will be recorded for 45 min and data collected in 5-min intervals. Data will be stored on a computer equipped with Ethovision XT (Noldus).

T1 sequence (P11275 whole entry): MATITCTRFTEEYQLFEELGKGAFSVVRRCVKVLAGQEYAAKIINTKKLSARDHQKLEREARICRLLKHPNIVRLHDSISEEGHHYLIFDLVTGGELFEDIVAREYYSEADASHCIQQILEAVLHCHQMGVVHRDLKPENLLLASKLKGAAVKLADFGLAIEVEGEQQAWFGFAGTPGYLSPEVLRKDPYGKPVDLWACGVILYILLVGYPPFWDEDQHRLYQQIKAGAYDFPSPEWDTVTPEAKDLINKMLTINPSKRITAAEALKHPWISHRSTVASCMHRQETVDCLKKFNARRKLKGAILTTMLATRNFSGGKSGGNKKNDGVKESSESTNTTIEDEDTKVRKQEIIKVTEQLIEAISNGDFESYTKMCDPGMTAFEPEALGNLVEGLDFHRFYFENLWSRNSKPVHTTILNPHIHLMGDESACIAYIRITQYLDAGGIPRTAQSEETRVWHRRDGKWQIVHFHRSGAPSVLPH
T2 sequence (P11275 whole entry): as above

Compound: O=C(O)Cc1cn2nc(-c3ccc(Cl)cc3)ccc2n1 [JON-11, 2-(6-(4-Chlorophenyl)imidazo[1,2-b]pyridazin-2-yl)acetic acid]
- affinity for GABAA receptors (GABAA receptors): weak affinity
- Ki (recombinant CaMK2a; 5 nM [3H]HOCPCA, whole cell lysates of CaMK2a-transfected HEK293T cells): 3.5 µM
- higher affinity compared to GHB (recombinant CaMK2a; ratio of Ki values, [3H]HOCPCA binding): 14 x
- Ki [1]: 0.22 µM
- locomotor activity (mice): does not affect locomotor activity
